In patent US11360096B2, “Complex BRET technique for measuring biological interactions” (DUKE UNIVERSITY, priority 2019, dated 2022):

How the values were obtained:
[1] = tested on: Gαi:β-arrestin-2 complexes; assay: Split luciferase Gαi-LgBiT:β-arrestin-2-smBiT complex formation in cells overexpressing V2R; format: cell-based, human
Description: (§1) HEK293T cells seeded in 6-well plates were co-transfected with 500 ng of smBiT tagged β-arrestin-2, and either 250 ng of LgBiT tagged receptor or 2000 ng of untagged receptor and varying concentrations of LgBiT Gα protein expression vector (most experiments were conducted between 50-200 ng of Gα plasmid) or 2000 ng of mKO tagged β-arrestin-2 and 500 ng of smBiT tagged V2R using a calcium phosphate protocol. Twenty-four hours post-transfection, cells were plated onto clear bottom, white-walled 96-well plates at 50,000-100,000 cells/well in “BRET media”—clear minimum essential medium (GIBCO) supplemented with 2% FBS, 10 mM HEPES, 1×GLUTAMAX™, and 1× Anti-Anti (GIBCO). […] For luminescence split luciferase studies, plates were read with a BioTek SYNERGY™ Neo2 plate reader set at 37° C. with a 485 nm emission filter. […] For split luciferase luminescence experiments, plates were read both before and after ligand treatment to calculate Δnet change in luminescence and subsequently normalized to vehicle treatment. For complex BRET experiments, plates were read on a Berthold Mithras LB940 using pre-warmed media and instrument at 37° C. using a standard Rluc emissions filter (480 nm) with a custom mKO 542 nm long-pass emission filter (Chroma Technology Co., Bellows Falls, Vt.). The BRET ratio was calculated by dividing the mKO signal by the luciferase signal.

[2] = molecular target: T1, Angiotensin II type 1 receptor (AT1R) (Homo sapiens, UniProt P30556); assay: TGF-α shedding assay of canonical G protein signaling at AT1R; format: cell-based; settings: four Gα-family proteins tested
T1 sequence (P30556 1-359): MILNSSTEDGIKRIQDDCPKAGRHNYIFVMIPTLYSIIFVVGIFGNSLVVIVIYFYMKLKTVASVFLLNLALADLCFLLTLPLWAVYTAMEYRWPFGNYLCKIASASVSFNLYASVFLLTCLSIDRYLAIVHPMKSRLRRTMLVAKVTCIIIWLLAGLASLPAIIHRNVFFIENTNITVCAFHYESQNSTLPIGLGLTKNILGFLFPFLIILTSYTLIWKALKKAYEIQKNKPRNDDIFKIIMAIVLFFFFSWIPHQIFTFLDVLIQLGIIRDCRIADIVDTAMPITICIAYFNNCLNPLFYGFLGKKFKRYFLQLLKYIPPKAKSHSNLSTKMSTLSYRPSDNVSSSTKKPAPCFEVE

[3] = molecular target: T2, V2R:β-arrestin-2 complexes (Homo sapiens, UniProt P30518); assay: Split luciferase V2R-LgBiT:β-arrestin-2-smBiT association; format: cell-based; settings: V2R or β2AR
T2 construct: 3xHA (N); expressed in transfected cells; host or cells: HEK293T
Description: as §1

[4] = tested on: human pulmonary arterial smooth muscle cells (PASMCs); assay: Wound-healing migration assay, primary human cells; format: cell-based
Description: Human pulmonary arterial smooth muscle cells (PASMCs) were isolated from human lungs from a de-identified health donor (International Institute for the Advancement of Medicine, Edison, N.J.) with Institutional Review Board approval. Human PASMCs were seeded into 24-well plates at a density of 1.5×10^4 cells per well in Human Smooth Muscle Cell Basal Medium supplemented with Human SMC Growth Supplement (Cell Application, Inc.). At 30% confluency, cells were transfected with 50 ng of control or β-arrestin-1 and β-arrestin-2 ON […]™ siRNA pools (Dharmacon, Inc.). When the cells reached 100% confluency, they were serum starved for 4 hours with 2 hrs of PTX (200 ng/mL) treatment. Scratches were made using small pipette tips. Cells were washed using DPBS and stimulated with basal smooth muscle cell medium containing 1 μM Angiotensin-II (Millipore Sigma) or 10 μM TRV120023 (Genscript USA Inc.). The wound closure was monitored using live-cell station Zeiss Axio Observer microscope (Carl Zeiss, Thornwood, N.Y.). The images were captured in real-time at 0 hour and for every hour until 16 hours. The initial edges of the scratch at 0 hour time point were marked and migrated distance 12-16 hrs afterwards was measured using METAMORPH® Premier software (Molecular Devices, San Jose, Calif.) at the Duke Light Microscopy Core Facility (Durham, N.C.).

ERK1/2 phosphorylation = assay: Phospho-ERK/total ERK immunoblot in 'triple G' HEK 293 cells overexpressing V2R; format: cell-based, human; settings: agonist treated
Description: Cells were serum starved for at least four hours, stimulated with the indicated ligand, subsequently washed 1× with ice-cold PBS, lysed in ice-cold RIPA buffer containing phosphatase and protease inhibitors (Phos-STOP (Roche), Complete EDTA free (Sigma)) and rotated for forty-five minutes, and cleared of insoluble debris by centrifugation at >12,000×g (4° C., 15 minutes), after which the supernatant was collected. Protein was resolved on SDS-10% polyacrylamide gels, transferred to nitrocellulose membranes, and immunoblotted with the indicated primary antibody overnight (4° C.). Phospho-ERK (Cell Signaling Technology, #9106) and total ERK (Millipore #06-182) were used to assess ERK activation. A1-CT antibody that recognizes both isoforms of β-arrestin was utilized, with protein loading assessed by alpha-tubulin (Sigma #T6074). Galpha i-1 (13533, Santa Cruz Biotechnology), Galpha q/11/14 (365906, Santa Cruz Biotechnology), Galpha 12 (515445, Santa Cruz Biotechnology), Galpha 13 (293424, Santa Cruz Biotechnology), Galpha s/olf (55545, Santa Cruz Biotechnology) antibodies were used to verify ‘Δ3G’ HEK 293 cells.
Horseradish peroxidase-conjugated polyclonal mouse anti-rabbit-IgG or anti-mouse-IgG were used as secondary antibodies. […] For quantification, phospho-protein signal was normalized to total protein signal using Image Lab (Bio-Rad) within the same blot.

[5] = tested on: HEK 293 cells stably expressing AT1R; assay: Wound-healing migration assay, immortalized cells; format: cell-based, human; settings: PTX pretreatment 200 ng/mL
Description: HEK 293T cells stably expressing the AT1R were utilized. Briefly, 70 μl of cell suspension at a concentration of 5×10^5 cells per mL was applied into each well of silicone inserts (Ibidi, Martinsried, Germany) on 24 well plate, and after 24 hrs incubation, the inserts were removed to create a wound field. The cells were incubated additionally for 12 hrs with 1 μM of TRV120023 and visualized with a Zeiss Axio Observer microscope (Carl Zeiss, Thornwood, N.Y.). Wound healing was then analyzed using ImageJ (NIH, Bethesda, Md.) wound healing tool macros.

Molecule: CCOc1ccc2c(c1)C1(CCC(OCCN3CCOCC3)CC1)C(=O)N2S(=O)(=O)c1ccc(C(=O)NC(C)(C)C)cc1OC (stereo not shown) [SR121463]
- Gαi:β-arrestin complex formation after antagonist pretreatment ([1]; HEK 293 cells overexpressing V2R, pretreatment 30 min, 10 uM): prevented formation of Gαi:β-arrestin complexes

Molecule: Angiotensin II [AngII]
- Canonical G protein signaling at AT1R [2]: canonically signals through both Gαq and Gαi

Molecule: pertussis toxin
- Effect of pertussis toxin pretreatment on β-arrestin recruitment to receptor [3]: did not affect β-arrestin recruitment to either the V2R or β2AR
- Sensitivity of the Gαi:β-arrestin interaction to pertussis toxin ([1]; pertussis toxin pretreatment): partially sensitive to pertussis toxin
- Pertussis toxin sensitivity of migration towards TRV120023 [4]: pertussis toxin sensitive
- ERK phosphorylation after pertussis toxin pretreatment (ERK1/2 phosphorylation): abrogated, but did not eliminate, ERK phosphorylation
- Reduction of TRV120023-mediated migration by pertussis toxin pretreatment [5]: ~50%
